Measurements taken from patent US20210322450A1, “APPLICATION OF COMPOSITION CONTAINING NICOTINAMIDE MONONUCLEOTIDE IN ANTI-AGING DRUGS/HEALTHCARE PRODUCTS” (HOBOOMLIFE BIO-TECHNOLOGY (SHENZHEN) CO., LTD., priority 2019, published 2021).

Test system: ex-vivo carotid artery segment of the mouse
Experiment: Ex-vivo carotid artery segment incubated with TEMPOL in vitro (EDD)
Parameters: species or system C57BL/6 male mice
Description: After 8 weeks, the mice were anesthetized with isoflurane and euthanized by bloodletting through cardiac puncture. The carotid artery was excised, the […] was inserted into the tip of a glass micropipette, and fixed with a nylon suture in a myograph chamber (DMTInc., Ann Arbor, Mich., USA) containing a buffered saline solution.
The artery was pressurized to 50 mm Hg at 37° C. and equilibrated for 45 minutes before the experiment. After sub-polar contraction was performed using phenylephrine (2 μM), the diameter of the arterial lumen was increased to the degree of response of acetylcholine (Ach: 1×10^−91×10^−4 M), and the arterial tube treated with acetylcholine was used to determine […] dilation by vasodilation in response to NO donor sodium nitroprusside (SNP: 1×10^−101×10^−4 M). Calculated according to the following formula, the vasodilation response was recorded as the actual diameter due to the difference in the maximum carotid artery diameter of the young and old animals, expressed as a percentage of the maximum reaction. The formula is as follows:
Dilation (%)=(Ds−Db)/(Dm−Db)×100%;
wherein, Dm is the maximum diameter of the lumen under a pressure of 50 mm Hg pressure; Db is the steady-state lumen diameter after pre-contraction before the first addition of the drug; Ds is the steady-state lumen diameter recorded after the drug is added.

CC1(C)CC(O)CC(C)(C)N1[O] [TEMPOL, 4-hydroxy-2,2,6,6-tetramethylpiperidin-1-yloxy]
EDD of the carotid artery after incubation in vitro (old control group): restored the EDD
EDD of the carotid artery after incubation in vitro (other groups (young control, young and old experimental groups)): no effect
